For orientation: EC50 means the concentration at which the effect is half-maximal. A lower EC50 goes with a more potent agent. As a reminder, the inhibition is the drop in the measured response relative to a control, in per cent. A word on the Ki: it is a dissociation constant, usually derived from enzyme kinetics or from competition with a known ligand. A high value points to lower affinity.

This is an account of results in ChEMBL document CHEMBL4270566, “New aziridine-based inhibitors of cathepsin L-like cysteine proteases with selectivity for the Leishmania cysteine protease LmCPB2.8” (Eur J Med Chem, 2018).

The source made the active and inactive calls. The calls are words filed in the database; no cut-off is given here.

The subject of data set [1] is Leishmania major. The data set is described as follows: Antileishmanial activity against Leishmania major promastigotes. The format is functional, organism-based.
The subject of data set [2] is Leishmania major. The data set is described as follows: Antileishmanial activity against luciferase-fused Leishmania major amastigotes infected in BMDM after 24 hrs by luminescence assay. The format is functional, organism-based.
The subject of the next data set is J774. Put plainly: Cytotoxicity against mouse J774 cells. The format is cell-based.
Data set [3] deals with Leishmania major. Put plainly: Antileishmanial activity against Leishmania major promastigotes at 20 uM. The format is functional, organism-based.
The target of data set [4] is T1, Procathepsin L (Homo sapiens, UniProt P07711). The data set is described as follows: Inhibition of human cathepsin-L at 20 uM using Z-Phe-Arg-AMC as substrate by fluorometric assay relative to control.
Target sequence in this assay (P07711 114-333 limits assumed): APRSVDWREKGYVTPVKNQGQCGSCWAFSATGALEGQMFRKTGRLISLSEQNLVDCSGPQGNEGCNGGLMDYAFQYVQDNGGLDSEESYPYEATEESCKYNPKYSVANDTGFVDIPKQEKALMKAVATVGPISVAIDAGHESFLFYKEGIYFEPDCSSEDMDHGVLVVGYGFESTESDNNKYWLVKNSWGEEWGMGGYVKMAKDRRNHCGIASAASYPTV
For another data set, the target named is Cathepsin B (Homo sapiens, UniProt P07858). Put plainly: Inhibition of human cathepsin-B at 20 uM using Z-Phe-Arg-AMC as substrate by fluorometric assay relative to control.
Data set [5] has as its target T2, Falcipain 2 (Plasmodium falciparum) (UniProt Q9N6S8).
T2 sequence (whole entry): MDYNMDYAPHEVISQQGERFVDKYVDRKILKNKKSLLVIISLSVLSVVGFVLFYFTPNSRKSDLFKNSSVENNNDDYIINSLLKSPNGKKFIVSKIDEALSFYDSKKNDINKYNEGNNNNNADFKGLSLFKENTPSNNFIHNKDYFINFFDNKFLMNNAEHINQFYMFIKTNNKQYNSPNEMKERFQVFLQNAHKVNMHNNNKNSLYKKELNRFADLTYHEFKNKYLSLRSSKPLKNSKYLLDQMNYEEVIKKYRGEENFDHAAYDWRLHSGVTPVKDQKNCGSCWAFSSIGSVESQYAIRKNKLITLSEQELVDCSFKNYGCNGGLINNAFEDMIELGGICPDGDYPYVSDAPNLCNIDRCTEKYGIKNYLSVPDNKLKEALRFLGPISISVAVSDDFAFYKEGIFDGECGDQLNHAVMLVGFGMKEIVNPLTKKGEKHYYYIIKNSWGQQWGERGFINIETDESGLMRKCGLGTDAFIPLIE
The data set is described as follows: Inhibition of Plasmodium falciparum falcipain 2 at 20 uM using Z-Phe-Arg-AMC as substrate by fluorometric assay relative to control.

A short description of data set [6]: Inhibition of Leishmania mexicana cathepsin L-like protease CPB2.8 using Z-Phe-Arg-AMC as substrate by fluorometric assay.
The test system of another data set is Leishmania mexicana. The data set is described as follows: Inhibition of Leishmania mexicana cathepsin L-like protease CPB2.8 at 20 uM using Z-Phe-Arg-AMC as substrate by fluorometric assay relative to control.
For data set [7], the target named is Rhodesain (Trypanosoma brucei rhodesiense) (UniProt Q95PM0). Put plainly: Inhibition of Trypanosoma brucei rhodesiense rhodesain at 20 uM using Z-Phe-Arg-AMC as substrate by fluorometric assay relative to control.
Rhodesain (Trypanosoma brucei rhodesiense), sequence (Q95PM0 1-450): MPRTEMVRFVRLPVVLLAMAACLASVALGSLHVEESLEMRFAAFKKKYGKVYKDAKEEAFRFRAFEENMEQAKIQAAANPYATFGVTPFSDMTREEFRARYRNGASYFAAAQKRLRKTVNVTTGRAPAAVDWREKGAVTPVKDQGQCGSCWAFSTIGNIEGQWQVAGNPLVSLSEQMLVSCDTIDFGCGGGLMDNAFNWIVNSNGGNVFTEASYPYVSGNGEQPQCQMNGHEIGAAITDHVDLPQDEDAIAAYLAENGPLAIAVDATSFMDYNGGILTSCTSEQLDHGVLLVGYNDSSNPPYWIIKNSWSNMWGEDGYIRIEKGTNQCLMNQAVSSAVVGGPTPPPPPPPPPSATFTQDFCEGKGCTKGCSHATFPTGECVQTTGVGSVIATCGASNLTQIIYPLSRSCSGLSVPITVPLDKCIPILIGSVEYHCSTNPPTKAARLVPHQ
Data set [8] has as its target Cruzipain (Trypanosoma cruzi) (UniProt P25779). The data set is described as follows: Inhibition of Trypanosoma cruzi cruzain at 20 uM using Z-Phe-Arg-AMC as substrate by fluorometric assay relative to control.
For a further data set, the target named is Cruzipain (Trypanosoma cruzi, UniProt P25779). Put plainly: Inhibition of Trypanosoma cruzi cruzain using Z-Phe-Arg-AMC as substrate by fluorometric assay.
Cruzipain, sequence (P25779 whole entry): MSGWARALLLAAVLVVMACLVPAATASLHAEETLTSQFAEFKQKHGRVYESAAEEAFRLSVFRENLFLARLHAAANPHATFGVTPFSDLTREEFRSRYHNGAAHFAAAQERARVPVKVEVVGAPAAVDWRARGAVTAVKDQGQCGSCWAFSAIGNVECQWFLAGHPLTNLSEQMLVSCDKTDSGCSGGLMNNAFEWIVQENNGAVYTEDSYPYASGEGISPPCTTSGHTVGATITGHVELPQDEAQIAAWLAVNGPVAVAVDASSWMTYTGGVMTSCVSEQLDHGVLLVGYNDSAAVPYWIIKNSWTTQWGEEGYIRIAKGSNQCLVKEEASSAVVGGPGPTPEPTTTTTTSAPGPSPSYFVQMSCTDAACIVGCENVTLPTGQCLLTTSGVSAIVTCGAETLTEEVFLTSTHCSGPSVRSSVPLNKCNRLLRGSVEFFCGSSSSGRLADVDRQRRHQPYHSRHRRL
The target of data set [9] is T1, Procathepsin L. The data set is described as follows: Inhibition of human cathepsin-L using Z-Phe-Arg-AMC as substrate by fluorometric assay.
Target sequence in this assay (P07711 whole entry): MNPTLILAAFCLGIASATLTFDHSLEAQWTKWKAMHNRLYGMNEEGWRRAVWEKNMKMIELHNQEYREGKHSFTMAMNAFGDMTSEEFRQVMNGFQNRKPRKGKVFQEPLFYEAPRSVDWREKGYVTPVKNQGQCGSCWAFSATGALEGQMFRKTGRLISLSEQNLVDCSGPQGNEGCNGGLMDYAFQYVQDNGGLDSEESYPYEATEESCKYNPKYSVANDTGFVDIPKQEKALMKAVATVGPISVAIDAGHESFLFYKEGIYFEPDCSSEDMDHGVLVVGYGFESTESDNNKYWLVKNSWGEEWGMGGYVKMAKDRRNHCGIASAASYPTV
The next data set concerns the target T3, Falcipain 2 (Plasmodium falciparum, UniProt Q9N6S8).
T3 sequence (Q9N6S8 whole entry): T2 sequence (whole entry)
Put plainly: Inhibition of Plasmodium falciparum falcipain 2 using Z-Phe-Arg-AMC as substrate by fluorometric assay.

The target of the next data set is Rhodesain (Trypanosoma brucei rhodesiense, UniProt Q95PM0). Put plainly: Inhibition of Trypanosoma brucei rhodesiense rhodesain using Z-Phe-Arg-AMC as substrate by fluorometric assay.
Rhodesain, sequence (Q95PM0 whole entry): as the sequence (Q95PM0 1-450) above
The target of data set [10] is T2, Falcipain 2 (Plasmodium falciparum). Put plainly: Inhibition of Plasmodium falciparum falcipain 2 assessed as second order inactivation rate constant using Z-Phe-Arg-AMC as substrate by fluorometric assay.

Cruzipain (Trypanosoma cruzi), sequence (P25779 123-467 limits assumed): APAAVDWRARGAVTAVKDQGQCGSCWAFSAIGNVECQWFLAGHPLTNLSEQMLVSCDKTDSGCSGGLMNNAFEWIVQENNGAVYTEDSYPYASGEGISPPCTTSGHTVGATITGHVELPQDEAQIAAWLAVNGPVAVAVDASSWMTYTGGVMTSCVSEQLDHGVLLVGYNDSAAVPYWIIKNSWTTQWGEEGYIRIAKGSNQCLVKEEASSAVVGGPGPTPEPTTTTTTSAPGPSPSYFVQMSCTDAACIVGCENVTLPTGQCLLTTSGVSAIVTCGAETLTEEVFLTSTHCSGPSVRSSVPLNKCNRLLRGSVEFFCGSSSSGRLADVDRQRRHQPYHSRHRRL

In the case of `CC[C@H](C)[C@H](NC(=O)OC(C)(C)C)C(=O)N1CCC[C@@H]1C(=O)N1[C@@H](C(=O)OCc2ccccc2)[C@@H]1C(=O)OCc1ccccc1`, the EC50 in the data set on Leishmania major [1] is 9.8 µM; with Leishmania major [2], 2 µM. The Activity in the data set with J774 was > 250 µM.
For the molecule `CC(C)C[C@H](NC(=O)OC(C)(C)C)C(=O)N1CCC[C@H]1C(=O)N1[C@H](C(=O)OCc2ccccc2)[C@H]1C(=O)OCc1ccccc1`, the outcome in the data set on Leishmania major [3] was inactive. For the same molecule, the inhibition entry (on Procathepsin L [4]; at Cathepsin B; in [5]) was “inactive” each time.
As to `CC(C)C[C@H](NC(=O)OC(C)(C)C)C(=O)N1CCC[C@@H]1C(=O)N1C(C(=O)OCC2CCCCC2)C1C(=O)OCC1CCCCC1` (mixture of isomers), in data set [6], the Ki is 0.77 µM. Besides, the inhibition against Procathepsin L [4] was < 50%; in the data set with Leishmania mexicana, > 50%; in data set [7], < 50%; in [8], < 50%; in data set [5] it was < 50%. The inhibition result at Cathepsin B is “inactive”.
Regarding `CC(C)C[C@H](NC(=O)OC(C)(C)C)C(=O)N1CCC[C@@H]1C(=O)N1C(C(=O)OCCc2ccccc2)C1C(=O)OCCc1ccccc1` (mixture of isomers), the inhibitory constant (Ki) in [6] came to 1.6 µM; on Cruzipain, 7.7 µM. The inhibition against Procathepsin L [4] was < 50%; with Leishmania mexicana, > 50%; in data set [7] it was < 50%; in data set [8], > 50%; in [5], < 50%. Further, the inhibition result on Cathepsin B was “inactive”.
On to `CC(C)C[C@@H](NC(=O)OC(C)(C)C)C(=O)N1CCC[C@H]1C(=O)N1[C@H](C(=O)OCc2ccccc2)[C@H]1C(=O)OCc1ccccc1`, for which the half-maximal effective concentration (EC50) worked out at 35.4 µM in the data set on Leishmania major [1] and 2.7 µM with Leishmania major [2]. Further, the Ki at Procathepsin L [9] worked out at 4 µM; in data set [6], 2.1 µM; on Cruzipain, 0.79 µM; on Falcipain 2, 28.3 µM. Moreover, the inhibition entry on Cathepsin B was “inactive”.
The molecule `CC(C)C[C@@H](NC(=O)OC(C)(C)C)C(=O)N1CCC[C@H]1C(=O)N1[C@@H](C(=O)OCc2ccccc2)[C@@H]1C(=O)OCc1ccccc1` displayed an EC50 in the data set on Leishmania major [1] of 95 µM. For the same molecule, the Ki came out at 3.4 µM in data set [6], 15.2 µM at Rhodesain and 30.9 µM on Cruzipain. The inhibition result (at Procathepsin L [4]; on Cathepsin B; in data set [5]) was “inactive” throughout.
Consider `CC(C)C[C@H](NC(=O)OC(C)(C)C)C(=O)N1CCC[C@@H]1C(=O)N1[C@H](C(=O)OCc2ccccc2)[C@H]1C(=O)OCc1ccccc1`, for which the concentration for a half-maximal effect (EC50) in the data set on Leishmania major [1] amounted to 39.6 µM; with Leishmania major [2], 2.2 µM. In addition, the Ki on Procathepsin L [9] was determined as 6 µM; in data set [6] it was 1.7 µM; at Cruzipain it was 0.9 µM; at Falcipain 2, 43.9 µM. On Cathepsin B, the inhibition entry is “inactive”.
For the molecule `CC(C)C[C@H](NC(=O)OC(C)(C)C)C(=O)N1CCC[C@@H]1C(=O)N1C(C(=O)OCCCc2ccccc2)C1C(=O)OCc1ccccc1` (mixture of isomers), in data set [6], the inhibition constant (Ki) turned out to be 1.36 µM. The inhibition at Procathepsin L [4] was < 50%; in the data set on Leishmania mexicana, > 50%; in data set [7], < 50%; in data set [8], < 50%; in data set [5], < 50%. At Cathepsin B, the inhibition result was “inactive”.
`CC(C)C[C@H](NC(=O)OC(C)(C)C)C(=O)N1CCC[C@@H]1C(=O)N1C(C(=O)OCc2ccccc2)C1C(=O)OCc1ccc2ccccc2c1` (mixture of isomers) displayed an inhibition constant (Ki) in [6] of 0.8 µM. In addition, the inhibition against Procathepsin L [4] was < 50%; in the data set with Leishmania mexicana it was > 50%; in data set [7], < 50%; in data set [8], < 50%; in [5], < 50%. Moreover, at Cathepsin B, the inhibition entry was “inactive”.
`CC(C)C[C@H](NC(=O)OC(C)(C)C)C(=O)N1CCC[C@@H]1C(=O)N1C(C(=O)OCc2ccccc2)C1C(=O)OCC1CCCCC1` (mixture of isomers): the figures for the Ki (in data set [6]; at Cruzipain) were 1.8 µM and 7.6 µM, respectively. Besides, the inhibition at Procathepsin L [4] is < 50%; in the data set on Leishmania mexicana, > 50%; in data set [7] it was < 50%; in data set [8], > 50%; in [5], < 50%. The inhibition result on Cathepsin B is “inactive”.
`CCOC(=O)C1C(C(=O)OCc2ccccc2)N1C(=O)[C@H]1CCCN1C(=O)[C@H](CC(C)C)NC(=O)OC(C)(C)C` (mixture of isomers): the inhibition (against Procathepsin L [4]; with Leishmania mexicana; in [7]; in data set [8]; in data set [5]) was < 50% each time. In addition, the inhibition entry at Cathepsin B was “inactive”.
For the molecule `CC(C)C[C@@H](NC(=O)OC(C)(C)C)C(=O)N1CCC[C@@H]1C(=O)N1[C@H](C(=O)OCc2ccccc2)[C@H]1C(=O)OCc1ccccc1`, the result in the data set on Leishmania major [3] was inactive. The inhibition entry (on Procathepsin L [4]; at Cathepsin B; in [5]) was “inactive” in each case.
As for `CC(C)C[C@H](NC(=O)OC(C)(C)C)C(=O)N1CCC[C@@H]1C(=O)N1C(C(=O)OCc2ccccc2)C1C(=O)OCc1ccccc1` (mixture of isomers), the Ki at Procathepsin L [9] was 12 µM; in [6], 2.8 µM; on Rhodesain, 1.5 µM; at Cruzipain, 1.8 µM. For the same molecule, the inhibition (on Procathepsin L [4]; with Leishmania mexicana; in data set [7]; in [8]; in data set [5]) was > 50% each time. Moreover, the inhibition result on Cathepsin B is “inactive”.
As to `CCOC(=O)C1C(C(=O)O)N1C(=O)[C@H]1CCCN1C(=O)[C@H](CC(C)C)NC(=O)OC(C)(C)C` (mixture of isomers), the inhibition (on Procathepsin L [4]; in the data set on Leishmania mexicana; in data set [7]; in [8]; in data set [5]) was < 50% each time. Also, the inhibition result at Cathepsin B was “inactive”.
In the case of `CC(C)C[C@H](NC(=O)OC(C)(C)C)C(=O)N1CCC[C@@H]1C(=O)N1C(C(=O)OCc2ccccc2)C1C(=O)OC(C)(C)C` (mixture of isomers), the inhibition (at Procathepsin L [4]; in the data set with Leishmania mexicana; in data set [7]; in data set [8]; in data set [5]) was < 50% each time. For the same molecule, on Cathepsin B, the inhibition entry is “inactive”.
For `CC(C)C[C@H](NC(=O)OC(C)(C)C)C(=O)N1CCC[C@@H]1C(=O)N1C(C(=O)O)C1C(=O)OC(C)(C)C` (mixture of isomers), the inhibition (at Procathepsin L [4]; in the data set on Leishmania mexicana; in data set [7]; in [8]; in data set [5]) was < 50% in each case. At Cathepsin B, the inhibition result is “inactive”.
`CC(C)C[C@H](NC(=O)OC(C)(C)C)C(=O)N1CCC[C@@H]1C(=O)N1C(C(=O)OCCCc2ccccc2)C1C(=O)OCCCc1ccccc1` (mixture of isomers) came in with a Ki in data set [6] of 0.9 µM. The inhibition is < 50% against Procathepsin L [4]; > 50% in the data set on Leishmania mexicana; < 50% in data set [7]; < 50% in [8]; < 50% in [5]. Also, the inhibition result at Cathepsin B is “inactive”.
Turning to `CC(C)C[C@H](NC(=O)OC(C)(C)C)C(=O)N1CCC[C@@H]1C(=O)N1C(C(=O)O)C1C(=O)OCCCc1ccccc1` (mixture of isomers), the Ki on Falcipain 2 came to 28.6 µM. Moreover, the inhibition at Procathepsin L [4] was < 50%; in the data set with Leishmania mexicana, < 50%; in [7], < 50%; in [8], < 50%; in [5], > 50%. Besides, on Cathepsin B, the inhibition result was “inactive”. The K in data set [10] was found to be 55.8 M⁻¹ s⁻¹.
For the molecule `CC(C)C[C@H](NC(=O)OC(C)(C)C)C(=O)N1CCC[C@@H]1C(=O)N1C(C(=O)OCCc2ccccc2)C1C(=O)OCc1ccccc1` (mixture of isomers), the figures for the inhibition constant Ki (in data set [6]; at Cruzipain) were 1.92 µM and 5.5 µM, respectively. Also, the inhibition against Procathepsin L [4] was < 50%; in the data set on Leishmania mexicana it was > 50%; in data set [7], < 50%; in [8], > 50%; in data set [5], < 50%. Moreover, the inhibition entry at Cathepsin B was “inactive”.
